Measured values taken from patent US7772271B2 (priority 2004, dated 2010).

Q: For `N#Cc1c(-c2ccc(OC(=O)NC3CCCCC3)cc2)n(CC2CC2)c2cc(OC3CCOCC3)ccc12` [Compound 2785], which melting point is on record?
A: 158 to 160 °C

Q: Which melting point does the source give for `CC(C)NS(=O)(=O)Nc1ccc(-c2c(C#N)c3ccc(OC4CCOCC4)cc3n2C2CCC2)cc1` [Compound 2786] here?
A: 183 to 185 °C

Q: With `C[C@@H](OC(=O)Nc1ccc(-c2c(C#N)c3ccc(C(=O)N4CCCCC4)cc3n2C2CCC2)cc1)C1CC1` [Compound 2787] as the molecule, how does the melting point read?
A: 148 to 150 °C

Q: For `C[C@@H](OC(=O)Nc1ccc(-c2c(C#N)c3ccc(C(=O)N4CCCC4)cc3n2C2CCC2)cc1)C1CC1` [Compound 2788], which melting point is on record?
A: 124 to 127 °C

Q: Which melting point does the source give for `N#Cc1c(-c2ccc(OC[C@H]3CCCO3)cc2)n(CC2CC2)c2cc(OC3CCOCC3)ccc12` [Compound 2789] here?
A: 133 to 134 °C

Q: With `N#Cc1c(-c2ccc(OC(=O)N3CCOCC3)cc2)n(CC2CC2)c2cc(OC3CCOCC3)ccc12` [Compound 2790] as the molecule, how does the melting point read?
A: 188 to 189 °C

Q: With `COCCN(C)C(=O)c1ccc2c(C#N)c(-c3ccc(NC(=O)O[C@H](C)C4CC4)cc3)n(C3CCC3)c2c1` [Compound 2791] as the molecule, how does the melting point read?
A: 96 to 98 °C

Q: For `COCCCNC(=O)c1ccc2c(C#N)c(-c3ccc(NC(=O)O[C@H](C)C4CC4)cc3)n(C3CCC3)c2c1` [Compound 2792], which melting point is on record?
A: 90 to 94 °C

Q: With `C[C@@H](OC(=O)Nc1ccc(-c2c(C#N)c3ccc(C(=O)N4CCSCC4)cc3n2C2CCC2)cc1)C1CC1` [Compound 2793] as the molecule, how does the melting point read?
A: 148 to 151 °C

Q: For `COCCN(CCOC)C(=O)c1ccc2c(C#N)c(-c3ccc(NC(=O)O[C@H](C)C4CC4)cc3)n(C3CCC3)c2c1` [Compound 2794], which melting point is on record?
A: 75 to 77 °C

Q: For `C[C@@H](OC(=O)Nc1ccc(-c2c(C#N)c3cc(OCC4COCO4)ccc3n2C2CCC2)cc1)C(F)(F)F` (stereo partly shown) [Compound 2799], which melting point is on record?
A: 162 to 169 °C

Q: For `CC(C)S(=O)(=O)Nc1ccc(-c2c(C#N)c3ccc(N4CCOCC4)cc3n2C2CCC2)cc1` [Compound 2801], which melting point is on record?
A: 220 °C

Q: Which melting point does the source give for `N#Cc1c(-c2ccc(NS(=O)(=O)C3CC3)cc2)n(C2CCC2)c2cc(N3CCOCC3)ccc12` [Compound 2802] here?
A: 222 to 224 °C

Q: Which melting point does the source give for `CCCS(=O)(=O)Nc1ccc(-c2c(C#N)c3ccc(N4CCOCC4)cc3n2C2CCC2)cc1` [Compound 2803] here?
A: 203 to 204 °C

Q: With `N#Cc1c(-c2ccc(NC(=O)O[C@@H](c3ccccc3)C(F)(F)F)cc2)n(C2CCC2)c2cc(OCC3OCCO3)ccc12` [Compound 2805] as the molecule, how does the melting point read?
A: 174 to 175 °C

Q: For `N#Cc1c(-c2ccc(NC(=O)O[C@H](c3ccccc3)C(F)(F)F)cc2)n(C2CCC2)c2cc(OCC3OCCO3)ccc12` [Compound 2806], which melting point is on record?
A: 175 to 176 °C

Q: Which melting point does the source give for `CCNC(=O)Oc1ccc(-c2c(C#N)c3ccc(OC4CCOCC4)cc3n2C2CCC2)cc1` [Compound 2807] here?
A: 205 to 207 °C

Q: For `CCCNC(=O)Oc1ccc(-c2c(C#N)c3ccc(OC4CCOCC4)cc3n2C2CCC2)cc1` [Compound 2808], which melting point is on record?
A: 153 to 154 °C

Q: For `CC(C)NC(=O)Oc1ccc(-c2c(C#N)c3ccc(OC4CCOCC4)cc3n2C2CCC2)cc1` [Compound 2809], which melting point is on record?
A: 185 to 186 °C

Q: For `CCCCNC(=O)Oc1ccc(-c2c(C#N)c3ccc(OC4CCOCC4)cc3n2C2CCC2)cc1` [Compound 2810], which melting point is on record?
A: 137 to 138 °C

Q: With `N#Cc1c(-c2ccc(OC(=O)NC3CCCC3)cc2)n(C2CCC2)c2cc(OC3CCOCC3)ccc12` [Compound 2811] as the molecule, how does the melting point read?
A: 168 to 169 °C

Q: For `N#Cc1c(-c2ccc(OC(=O)NC3CCCCC3)cc2)n(C2CCC2)c2cc(OC3CCOCC3)ccc12` [Compound 2812], which melting point is on record?
A: 187 to 188 °C

Q: With `N#Cc1c(-c2ccc(OC(=O)N3CCOCC3)cc2)n(C2CCC2)c2cc(OC3CCOCC3)ccc12` [Compound 2814] as the molecule, how does the melting point read?
A: 178 to 179 °C

Q: Which melting point does the source give for `N#Cc1c(-c2ccc(OC(=O)N3CCCC3)cc2)n(C2CCC2)c2cc(OC3CCOCC3)ccc12` [Compound 2815] here?
A: 179 to 181 °C

Q: With `CCN(CC)C(=O)Oc1ccc(-c2c(C#N)c3ccc(OC4CCOCC4)cc3n2C2CCC2)cc1` [Compound 2816] as the molecule, how does the melting point read?
A: 137 to 138 °C

Q: For `CC(C)NC(=O)Nc1ccc(-c2c(C#N)c3cc(OC4COCOC4)ccc3n2C2CCC2)cc1` [Compound 2817], which melting point is on record?
A: 179 to 181 °C

Q: For `CC(C)Nc1ccc(-c2c(C#N)c3ccc(O[C@@H]4CCOC4)cc3n2C2CC2)cc1` [Compound 2818], which melting point is on record?
A: 185 to 187 °C

Q: With `C[C@@H](NC(=O)Nc1ccc(-c2c(C#N)c3ccc(Oc4ncccn4)cc3n2C2CCC2)cc1)c1ccc(F)cc1` [Compound 2819] as the molecule, how does the melting point read?
A: 150 °C (dec.)

Q: Which melting point does the source give for `C[C@H](NC(=O)Nc1ccc(-c2c(C#N)c3ccc(Oc4ncccn4)cc3n2C2CCC2)cc1)c1ccc(F)cc1` [Compound 2820] here?
A: 152 °C (dec.)

Q: Which melting point does the source give for `COCCN(C)C(=O)c1ccc2c(C#N)c(-c3ccc(NS(=O)(=O)C4CC4)cc3)n(C3CCC3)c2c1` [Compound 2824] here?
A: 201 to 203 °C

Q: Which melting point does the source give for `N#Cc1c(-c2ccc(NS(=O)(=O)C3CC3)cc2)n(C2CCC2)c2cc(C(=O)N3CCOCC3)ccc12` [Compound 2825] here?
A: 125 to 128 °C

Q: For `N#Cc1c(-c2ccc(NS(=O)(=O)C3CC3)cc2)n(C2CCC2)c2cc(C(=O)N3CCSCC3)ccc12` [Compound 2826], which melting point is on record?
A: 205 to 207 °C

Q: Which melting point does the source give for `C[C@@H](OC(=O)Nc1ccc(-c2c(C#N)c3ccc(OCCn4ccnc4)cc3n2C2CC2)cc1)c1ccc(F)cc1` [Compound 2828] here?
A: 225 to 230 °C

Q: With `C[C@@H](OC(=O)Nc1ccc(-c2c(C#N)c3cc(N4CCOCC4)ccc3n2C2CCC2)cc1)c1ccc(F)cc1` [Compound 2829] as the molecule, how does the melting point read?
A: 163 to 168 °C

Q: Which melting point does the source give for `C[C@@H](OC(=O)Nc1ccc(-c2c(C#N)c3ccc(OCCCCn4cncn4)cc3n2C2CCC2)cc1)C(F)(F)F` [Compound 2830] here?
A: 161 to 162 °C

Q: For `C[C@@H](OC(=O)Nc1ccc(-c2c(C#N)c3cc(N4CCOCC4)ccc3n2C2CCC2)cc1)C(F)(F)F` [Compound 2832], which melting point is on record?
A: 197 to 202 °C

Q: For `CNS(=O)(=O)Nc1ccc(-c2c(C#N)c3ccc(OC4CCOCC4)cc3n2C2CCC2)cc1` [Compound 2833], which melting point is on record?
A: 218 to 220 °C

Q: With `CCNS(=O)(=O)Nc1ccc(-c2c(C#N)c3ccc(OC4CCOCC4)cc3n2C2CCC2)cc1` [Compound 2834] as the molecule, how does the melting point read?
A: 199 to 201 °C

Q: With `CC[C@H](C)NS(=O)(=O)Nc1ccc(-c2c(C#N)c3ccc(OC4CCOCC4)cc3n2C2CCC2)cc1` [Compound 2835] as the molecule, how does the melting point read?
A: 196 to 198 °C

Q: For `CCC(CC)NS(=O)(=O)Nc1ccc(-c2c(C#N)c3ccc(OC4CCOCC4)cc3n2C2CCC2)cc1` [Compound 2836], which melting point is on record?
A: 193 to 195 °C

Q: For `N#Cc1c(-c2ccc(NS(=O)(=O)NCC3CC3)cc2)n(C2CCC2)c2cc(OC3CCOCC3)ccc12` [Compound 2837], which melting point is on record?
A: 210 to 212 °C

Q: With `CCn1ccnc1CCOc1ccc2c(C#N)c(-c3ccc(NC(=O)OC(C)C)cc3)n(C3CCC3)c2c1` [Compound 2842] as the molecule, how does the melting point read?
A: 203 to 212 °C

Q: Which melting point does the source give for `COCCOc1ccc2c(C#N)c(-c3ccc(C(=O)NCCN4CCOCC4)cc3)n(C3CCC3)c2c1` [Compound 2844] here?
A: 169 to 170 °C

Q: For `N#Cc1c(-c2ccc(NC(N)=S)cc2)n(C2CCC2)c2cc(OC3COCOC3)ccc12` [Compound 2846], which melting point is on record?
A: 202 to 204 °C

Q: With `CC(C)S(=O)(=O)Nc1ccc(-c2c(C#N)c3cc(Oc4ncccn4)ccc3n2C2CCC2)cc1` [Compound 2848] as the molecule, how does the melting point read?
A: 206 to 207 °C

Q: Which melting point does the source give for `CC(C)NC(=O)Nc1ccc(-c2c(C#N)c3cc(Oc4ncccn4)ccc3n2C2CCC2)cc1` [Compound 2851] here?
A: 140 to 145 °C

Q: For `C[C@@H](OC(=O)Nc1ccc(-c2c(C#N)c3ccc(Oc4ncccn4)cc3n2C2CCC2)cc1)C(F)(F)F` [Compound 2852], which melting point is on record?
A: 205 to 207 °C

Q: With `C[C@@H](OC(=O)Nc1ccc(-c2c(C#N)c3ccc(O[C@@H]4CCOC4)cc3n2C2CCC2)cc1)C(F)(F)F` [Compound 2853] as the molecule, how does the melting point read?
A: 189 to 190 °C

Q: Which melting point does the source give for `COCCOc1ccc2c(C#N)c(-c3ccc(NC(=O)O[C@H](C)c4ccc(F)cc4)cc3)n(C(C)C)c2c1` [Compound 2854] here?
A: 113 to 116 °C

Q: With `CC(C)NC(=O)Nc1ccc(-c2c(C#N)c3ccc(N4CCOCC4)cc3n2C2CC2)cc1` [Compound 2855] as the molecule, how does the melting point read?
A: 264 °C

Q: For `CC(C)OC(=O)Nc1ccc(-c2c(C#N)c3ccc(N4CCOCC4)cc3n2C2CC2)cc1` [Compound 2856], which melting point is on record?
A: 220 to 227 °C

Q: For `C[C@@H](OC(=O)Nc1ccc(-c2c(C#N)c3ccc(N4CCOCC4)cc3n2C2CC2)cc1)C1CC1` [Compound 2857], which melting point is on record?
A: 176 to 179 °C

Q: Which melting point does the source give for `N#Cc1c(-c2ccc(NC(=O)NC3CCC3)cc2)n(C2CC2)c2cc(N3CCOCC3)ccc12` [Compound 2858] here?
A: 230 to 232 °C

Q: For `CC(C)[C@H](C)OC(=O)Nc1ccc(-c2c(C#N)c3ccc(OC4COCOC4)cc3n2C2CCC2)cc1` [Compound 2859], which melting point is on record?
A: 200 to 201 °C

Q: Which melting point does the source give for `N#Cc1c(-c2ccc(NC(=O)OCC3CC3)cc2)n(C2CCC2)c2cc(OC3COCOC3)ccc12` [Compound 2860] here?
A: 197 to 198 °C

Q: Which melting point does the source give for `CC(OC(=O)Nc1ccc(-c2c(C#N)c3ccc(OC4COCOC4)cc3n2C2CCC2)cc1)C(C)(C)C` (stereo not shown) [Compound 2861] here?
A: 221 to 232 °C (dec.)

Q: For `CC(C)NC(=O)Nc1ccc(-c2c(C#N)c3ccc(N4CCOCC4)cc3n2C2CCC2)cc1` [Compound 2862], which melting point is on record?
A: 234 to 235 °C

Q: Which melting point does the source give for `N#Cc1c(-c2ccc(NC(=O)NC3CCC3)cc2)n(C2CCC2)c2cc(N3CCOCC3)ccc12` [Compound 2863] here?
A: 172 °C (dec.)

Q: With `C[C@@H](OC(=O)Nc1ccc(-c2c(C#N)c3ccc(N4CCOCC4)cc3n2C2CCC2)cc1)C(F)(F)F` [Compound 2864] as the molecule, how does the melting point read?
A: 220 to 222 °C

Q: Which melting point does the source give for `C[C@@H](OC(=O)Nc1ccc(-c2c(C#N)c3ccc(N4CCOCC4)cc3n2C2CCC2)cc1)c1ccc(F)cc1` [Compound 2865] here?
A: 163 to 165 °C

Q: For `C[C@@H](OC(=O)Nc1ccc(-c2c(C#N)c3ccc(N4CCOCC4)cc3n2C2CCC2)cc1)C1CC1` [Compound 2866], which melting point is on record?
A: 194 to 195 °C

Q: Which melting point does the source give for `C[C@@H](OC(=O)Nc1ccc(-c2c(C#N)c3ccc(OC4CCOCC4)cc3n2C2CC2)cc1)c1ccc(F)cc1` [Compound 2869] here?
A: 108 to 111 °C

Q: For `CC(OC(=O)Nc1ccc(-c2c(C#N)c3ccc(OC4CCOCC4)cc3n2C2CCC2)cc1)C1CCC1` (stereo not shown) [Compound 2871], which melting point is on record?
A: 198 to 199 °C

Q: For `N#Cc1c(-c2ccc(NC(=O)OC3CCC3)cc2)n(C2CCC2)c2cc(OC3COCOC3)ccc12` [Compound 2872], which melting point is on record?
A: 215 to 216 °C
